Reference: the supplement of paper PMC13380429

Tests used:
Details in all cases: 72 h
HepG2 [1] = test: cell viability relative to DMSO; higher = less toxic
Vero E6 [2] = test: as above
Caco-2 [3] = test: as above
Calu-3 [4] = test: as above
U2OS [5] = test: as above
HepG2 [6] = test: relative viability EC50 (midpoint between 100% and the lowest measured viability); higher = less toxic
Vero E6 [7] = test: as above
Caco-2 [8] = test: as above
Calu-3 [9] = test: as above
U2OS [10] = test: as above
HepG2 [11] = test: drug sensitivity score (DSS) for viability; higher = more toxic; extreme values may be limits of the assay
Vero E6 [12] = test: as above
Caco-2 [13] = test: as above
Calu-3 [14] = test: as above
U2OS [15] = test: as above

| Structure (SMILES) | cell viability (HepG2 [1]; 1 nM) [%] | cell viability (HepG2 [1]; 10 nM) [%] | cell viability (HepG2 [1]; 100 nM) [%] | cell viability (HepG2 [1]; 1000 nM) [%] | cell viability (HepG2 [1]; 10000 nM) [%] | cell viability (Vero E6 [2]; 1 nM) [%] | cell viability (Vero E6 [2]; 10 nM) [%] | cell viability (Vero E6 [2]; 100 nM) [%] | cell viability (Vero E6 [2]; 1000 nM) [%] | cell viability (Vero E6 [2]; 10000 nM) [%] | cell viability (Caco-2 [3]; 1 nM) [%] | cell viability (Caco-2 [3]; 10 nM) [%] | cell viability (Caco-2 [3]; 100 nM) [%] | cell viability (Caco-2 [3]; 1000 nM) [%] | cell viability (Caco-2 [3]; 10000 nM) [%] | cell viability (Calu-3 [4]; 1 nM) [%] | cell viability (Calu-3 [4]; 10 nM) [%] | cell viability (Calu-3 [4]; 100 nM) [%] | cell viability (Calu-3 [4]; 1000 nM) [%] | cell viability (Calu-3 [4]; 10000 nM) [%] | cell viability (U2OS [5]; 1 nM) [%] | cell viability (U2OS [5]; 10 nM) [%] | cell viability (U2OS [5]; 100 nM) [%] | cell viability (U2OS [5]; 1000 nM) [%] | cell viability (U2OS [5]; 10000 nM) [%] | relative viability EC50 (HepG2 [6]) [µM] | relative viability EC50 (Vero E6 [7]) [µM] | relative viability EC50 (Caco-2 [8]) [µM] | relative viability EC50 (Calu-3 [9]) [µM] | relative viability EC50 (U2OS [10]) [µM] | drug sensitivity score (HepG2 [11]) | drug sensitivity score (Vero E6 [12]) | drug sensitivity score (Caco-2 [13]) | drug sensitivity score (Calu-3 [14]) | drug sensitivity score (U2OS [15]) |
| --- | --- | --- | --- | --- | --- | --- | --- | --- | --- | --- | --- | --- | --- | --- | --- | --- | --- | --- | --- | --- | --- | --- | --- | --- | --- | --- | --- | --- | --- | --- | --- | --- | --- | --- | --- |
| Cc1onc(-c2c(Cl)cccc2Cl)c1C(=O)N[C@@H]1C(=O)N2[C@@H]1SC(C)(C)[C@@H]2C(=O)O [dicloxacillin] | 97.5 | 98.1 | 106 | 100 | 110 | 99.4 | 97.7 | 102 | 94.1 | 96.3 | 100 | 99.6 | 93.3 | 98.2 | 101 | 98.2 | 84.7 | 96 | 97.6 | 98.9 | 95.6 | 99.9 | 93.7 | 97.9 | 94.9 | > 10 | > 10 | > 10 | > 10 | > 10 | 0 | 0 | 0 | 0 | 0 |
| C[C@H]1O[C@@H](O[C@H]2[C@@H](O)C[C@H](O[C@H]3[C@@H](O)C[C@H](O[C@H]4CC[C@@]5(C)[C@H](CC[C@@H]6[C@@H]5C[C@@H](O)[C@]5(C)[C@@H](C7=CC(=O)OC7)CC[C@]65O)C4)O[C@@H]3C)O[C@@H]2C)C[C@H](O)[C@@H]1O [digoxin] | 107 | 105 | 72 | 16.4 | 8.7 | 95.1 | 94.9 | 5.8 | 1.2 | 1.3 | 97.7 | 99.5 | 65.7 | 21 | 20.3 | 101 | 102 | 96.4 | 26.5 | 12.8 | 97.3 | 96.1 | 82.7 | 4.6 | 4.8 | 0.177 | 0.031 | 0.114 | 0.449 | 0.182 | 18.9 | 30.2 | 18.9 | 14 | 20.1 |
| C[N+]1(C)CCC(=C(c2ccccc2)c2ccccc2)CC1 [diphemanil] | 113 | 98.1 | 108 | 97.6 | 110 | 105 | 108 | 103 | 99.9 | 102 | 97.2 | 100 | 95.7 | 101 | 93.6 | 95.3 | 107 | 110 | 96.1 | 102 | 101 | 99.7 | 95.5 | 97.7 | 97.4 | > 10 | > 10 | > 10 | > 10 | > 10 | 0 | 0 | 0 | 0 | 0 |
| O=c1c(-c2ccccc2)c1-c1ccccc1 [diphencyprone] | 95.2 | 91.4 | 95.7 | 89.8 | 86 | 101 | 104 | 99.6 | 99.1 | 93.5 | 110 | 103 | 114 | 106 | 97.2 | 105 | 97.6 | 104 | 111 | 122 | 98.9 | 99.5 | 103 | 98 | 84.2 | > 10 | > 10 | > 10 | > 10 | > 10 | 0.2 | 0 | 0 | 0 | 0.5 |
| COCCN(C(=O)c1cc(OC)c(OC)c(OC)c1)c1nc(-c2ccccc2)cs1 [eact] | 107 | 95.6 | 104 | 104 | 92.5 | 94.4 | 104 | 90.4 | 96.6 | 97.5 | 103 | 84.3 | 96.2 | 88.9 | 90.9 | 107 | 96.2 | 94.1 | 92.8 | 85.1 | 102 | 97 | 100 | 96.1 | 106 | > 10 | > 10 | > 10 | > 10 | > 10 | 0 | 0 | 0.1 | 0.4 | 0 |
| CCC(=O)O[C@H]1[C@H](O[C@@H]2[C@@H](C)[C@H](O[C@H]3C[C@@](C)(OC)[C@@H](O)[C@H](C)O3)[C@@H](C)C(=O)O[C@H](CC)[C@@](C)(O)[C@H](O)[C@@H](C)C(=O)[C@H](C)C[C@@]2(C)O)O[C@H](C)C[C@@H]1N(C)C [erythromycin-estolate] | 99.7 | 104 | 104 | 93.2 | 100 | 96.9 | 95.9 | 101 | 96.4 | 102 | 96.2 | 102 | 97.5 | 99.4 | 97 | 91.3 | 96 | 91.4 | 88.6 | 99 | 98.7 | 98.4 | 101 | 104 | 104 | > 10 | > 10 | > 10 | > 10 | > 10 | 0 | 0 | 0 | 0 | 0 |
